One test has as its system Sox2 in MCF-7 tumoroids. The test can be described thus: Sox2 expression in tumoroids after drug treatment (western blot / RT-PCR). The test is classed as cell-based, human. On the procedure: (§1) MCF-7 and MCF-7/dox were allowed to form tumoroids on scaffold for 6 days following which they were exposed to Actinomycin D for 24 hrs. At the end of 24 hrs the tumoroids were dissociated and processed for either western blotting (A) or real-time RT-PCR (B). Sox2 protein and transcript levels were analyzed and normalized to HPRT (C) Second generation MCF-7 tumoroids were cultured in a 96 well plate for 6 days. Tumoroids were treated with increasing concentrations of Actinomycin D on day 4 in groups of 4 wells. After a 48 hr treatment, cell viability was assayed using Cell Titer Glo(Promega) on day 6. Viability was calculated as a percent of control untreated wells and graphed using Graph Pad Prism software. (D) Tumoroids were treated with Actinomycin D for 48 hr. Following treatment tumoroids were dissociated and cells were co-stained using FITC conjugated CD44 antibody and Alexa Fluor-647 conjugated CD24 antibody. CD44^highCD24^low stem-like populations in MCF7 tumoroids were assessed by flow cytometer. Data was collected using a BD FACS Canto 2 flow cytometer.
(§2) MCF-7 and MCF-7/dox cells were seeded as monolayer and 3D tumoroid cultures in 96 well plates. […] Collagenase was used to detach the cells from the plate/scaffold platform. The cell pellet was resuspended in RIPA buffer and vortexed for 30 min followed by centrifugation at 4° C. at 13000 rpm to collect the protein extract. Protein content was determined by using BCA method and followed for western blot procedure. Antibodies for Nanog, Oct 4a, Sox2, and GAPDH/HPRT were obtained from Cell Signaling.
(§3) To determine the effects of Actinomycin D on the Sox2 protein levels in both MCF-7 and MCF-7/dox cell lines, MCF7 wt and MCF7-dox cells were seeded as monolayer and 3D tumoroid cultures (both in controls and cobalt chloride (CoCl2) scaffold cultures) in 96 well plates. […] Collagenase was used to detach the cells from the plate/scaffold platform. The cell pellet was then dissolved in trizol and RNA was isolated. RT-PCR was performed using 2 step process namely 1) cDNA synthesis using DNAase-1 treated RNA and 2) PCR was performed using primers of the gene of interest. […] The decrease in Sox2 expression was 2 fold in both the cell lines tested when compared to the control untreated tumoroids (2.05 vs. 0.75 pixel density in MCF-7 and 1.05 vs. 0.5 pixel density in MCF-7/dox) (FIG. 8B). […] Actinomycin D targets and down-regulates the expression of Sox2 resulting in depletion of stem-like cell population, which hampers the breast cancer cell's ability to initiate spheroids.
(Immunoblotting shows a protein as a band on a membrane.)

Test [1] deals with Sox2 in MCF-7/dox tumoroids. The test is described as above. In kind it is cell-based, human. On the procedure: as §1, §2, §3
Test [2] has as its system Second generation MCF-7 tumoroids. Description: Cell Titer Glo viability of second generation tumoroids. In kind it is cell-based, human. The following applies: 48 hr treatment. Here is the method: as §1
On the technique in general: In ATP-based viability assays light output follows the ATP content of the culture.

The test system of test [3] is CD44highCD24low cells in MCF-7 tumoroids. The test can be described thus: Flow cytometry of CD44highCD24low stem-like population in tumoroids. The test is classed as cell-based, human. Particulars: 48 hr treatment, compared to untreated controls. On the procedure: as §1
To further investigate the potential of the FiSS for use in cancer drug discovery by characterizing the BCSCs within the tumoroids, MCF-7 cells were seeded onto scaffolds in 6 well plates at 240,000 cells per well. Cells were cultured for 6 days in RPMI media to form primary tumoroids. […]

In another test the test system is MCF-7 cells. Description: Presto-blue cell viability, monolayer culture. Particulars: for potency in high throughput screening: NCI Oncology set, 4 point log-dose 0.1 to 100 μM, 72 hrs.
The next test deals with MCF-7/dox cells. The test can be described thus: Presto-blue cell viability, monolayer culture. Particulars: for potency in high throughput screening: NCI Oncology set, 4 point log-dose 0.1 to 100 μM, 72 hrs.
A further test relates to MDA-MB-231 cells. The test can be described thus: Presto-blue cell viability, breast cancer cell panel. Particulars: read-out: MDA-MB-231 (IC50); Table 1, validation of hits in breast cancer cell panel.
The next test has as its system BT474 cells. Described as above. Particulars: read-out: BT474 (IC50); Table 1, validation of hits in breast cancer cell panel.
Another test has as its system MCF-7 tumoroids. The test can be described thus: Presto-blue cell viability, tumoroids on FiSS scaffold.
The subject of another test is MCF-7/dox tumoroids. The description is as above.
The test system of another test is HT-29 cells. Description: Presto Blue cell viability, 2D monolayer. The following applies: monolayer culture; nine drugs at 0.1-20 μM, 72 hours.
A further test concerns HT-29 tumoroids. The test can be described thus: CellTiter-Glo viability, tumoroids on 3D fibrous scaffold. The following applies: scaffold culture; nine drugs at 0.1-20 μM, 72 hours.
Where [4] appears, read: read-out: MCF7-WT (IC50), Table 1, validation of hits in breast cancer cell panel.
Where [5] appears, read: read-out: MCF7-DOX (IC50), Table 1, validation of hits in breast cancer cell panel.

Usually IC50 stands for the concentration at which inhibition is half-maximal.

Where a name gives a salt, the structure may show the parent alone. Read-outs that look alike come from different tables or passages of the source. Starred links: 1 amine or outer side, 2 acyl side, 3 side chain; linkers in the order of their positions; H or OH if unused. Positions of bridges follow the written chain, without caps; N, C: chain ends. Non-standard residues stand in square brackets, D forms with d. Residues, ends and D or L forms follow the SMILES beside them. Chains are numbered I, II in the order given. Actinocin(9to1) = Cc1c2oc3c(C)ccc(C(=O)[*:1])c3nc-2c(C(=O)[*:2])c(N)c1=O; NMeV = CN[C@H](C(=O)O)C(C)C; Sar = CNCC(=O)O

Description for BT474 cells: (§4) All different cell lines were cultured either in regular 96 wells plate without scaffold (served as monolayer) and with FiSS (scaffold culture) in complete medium. For scaffold culture, 75% medium was carefully removed and replaced with 150 μl of fresh medium every alternate day. After five/six days of scaffold culture, cells were stained with NucBlue (Fisher Scientific) to check if tumoroids had formed. Drugs were added in triplicates with varying concentrations. The cells were incubated for 72 hrs in a humidified atmosphere under 5% CO2 at 37° C., then cell viability was measured using Presto-blue (Fisher Scientific).
Description for HT-29 cells: HT-29 cells were cultured in 2D monolayer for 24 hours. After 24 hours, the nine FDA-approved anticancer drugs were individually added to the cells at concentrations of 0.1, 1, 10, and 20 μM, and the cells were incubated for 72 hours, at which point viability of the cells was quantitated using Presto Blue assay (Life Technologies) according to the manufacturer's protocol. Raw fluorescence values of the treated groups were normalized to the average of the control and graphed in GraphPad Prism.
HT-29 cells were cultured in 2D monolayer for 24 hours. After 24 hours, the nine FDA-approved anticancer drugs were individually added to the cells at concentrations of 0.1, 1, 10, and 20 μM, and the cells were incubated for 72 hours, at which point viability of the cells was quantitated using Presto Blue assay (Life Technologies) according to the manufacturer's protocol. Raw fluorescence values of the treated groups were normalized to the average of the untreated controls and graphed in GraphPad Prism.
HT-29 cells were either grown in the standard 2-dimensional (2D) monolayer culture or in a 3-dimensional (3D) culture system using a novel fibrous scaffold. […] The monolayer cells and the 3D tumoroids were independently treated with increasing concentrations of nine FDA approved anti-cancer drugs. After 72 hours post-treatment a Presto Blue Cell Viability Assay (for monolayer) and CellTiter-Glo Viability Assay (for tumoroids) were used to quantitate the drug-induced cell death. The drug treated viability readings were normalized to the viability readings from untreated control. The percent viability was used to calculate the IC50 values of all the nine drugs in HT-29 cells.
Description for HT-29 tumoroids: HT-29 cells were cultured in the 3D fibrous scaffold from day 1 to day 7, at which point the nine FDA-approved anticancer drugs were individually added to the cells at concentrations of 0.1, 1, 10, and 20 μM. The cells were incubated for an additional 72 hours, at which point viability of the cells was quantitated using Celltiter-Glo assay (Promega) according to the manufacturer's protocol. Raw luminescence values of the treated groups were normalized to the average of the untreated controls and graphed in GraphPad Prism.
HT-29 cells were either grown in the standard 2-dimensional (2D) monolayer culture or in a 3-dimensional (3D) culture system using a novel fibrous scaffold. […] The monolayer cells and the 3D tumoroids were independently treated with increasing concentrations of nine FDA approved anti-cancer drugs. After 72 hours post-treatment a Presto Blue Cell Viability Assay (for monolayer) and CellTiter-Glo Viability Assay (for tumoroids) were used to quantitate the drug-induced cell death. The drug treated viability readings were normalized to the viability readings from untreated control.
Description for MCF-7 cells: (§5) (B) MCF-7 and MCF-7/dox cells were cultured on or on scaffold for 6 days and then cells were treated with increasing concentration of Doxorubicin. Forty-eight hrs post-treatment, cell viability was analyzed using presto-blue as per manufacturer's instructions. The % cell death was analyzed and the IC50 calculated using Graph Pad Prism. Data are represented as Mean±SEM of three independent experiments performed in triplicates (*p<0.05).
(§6) (A) MCF-7 and (B) MCF-7/dox cells were cultured on monolayer and then treated with increasing concentration of compounds from NCI Approved Oncology Drugs Set VII. Forty-eight hrs post-treatment, cell viability was analyzed using presto-blue as per manufacturer's instructions. The % cell death was analyzed and the IC50 calculated using Graph Pad Prism. Data are represented as Mean of experiments performed in triplicates.
(§7) To conduct a high through put screening for compounds that induce cell death in breast cancer, the FDA-approved Oncology Diversity set was obtained from NCI in 96 well plate format with each well containing 20 μl of 10 mM drug stock. All different cell lines were cultured either in regular 96 wells plate without scaffold (served as monolayer) and with FiSS (scaffold culture) in complete medium. […] Drugs were added in triplicates with varying concentrations. The cells were incubated for 72 hrs in a humidified atmosphere under 5% CO2 at 37° C., then cell viability was measured using Presto-blue (Fisher Scientific). […] MCF-7 ad MCF-7/dox were used in a monolayer in a 96 well plate, and then treated with a NCI Oncology diversity set containing FDA-approved anti-cancer drugs. Each drug was used in a 4 point log-dose from 0.1 to 100 μM. Untreated cells were used as control and the cell death was estimated at the end of 72 hrs post-treatment.
Description for MCF-7/dox cells: as §5, §6, §7
Description for MDA-MB-231 cells: as §4

For the compound `Cc1c2oc3c(C)ccc(C(=O)N[C@@H]4C(=O)N[C@H](C(C)C)C(=O)N5CCC[C@H]5C(=O)N(C)CC(=O)N(C)[C@@H](C(C)C)C(=O)O[C@@H]4C)c3nc-2c(C(=O)N[C@@H]2C(=O)N[C@H](C(C)C)C(=O)N3CCC[C@H]3C(=O)N(C)CC(=O)N(C)[C@@H](C(C)C)C(=O)O[C@@H]2C)c(N)c1=O` [Actinomycin D] (I: T[dV]P[Sar][NMeV] / II: T[dV]P[Sar][NMeV]; ester I:1-I:C, II:1-II:C; linker I:N-II:N via Actinocin(9to1)), the Sox2 expression in the test with Sox2 in MCF-7 tumoroids (MCF-7 tumoroids treated 24 hrs at concentration based on IC50, untreated control 2.05) is 0.75 pixel density; in [1] (MCF-7/dox tumoroids treated 24 hrs at concentration based on IC50, untreated control 1.05), 0.5 pixel density. The “decrease in Sox2 expression” value (with Sox2 in MCF-7 tumoroids (MCF-7 tumoroids vs control untreated tumoroids); in [1] (MCF-7/dox tumoroids vs control untreated tumoroids)) was 2 fold throughout. Further, the IC50 in test [2] amounted to 29 nM; in the test with MCF-7 cells (MCF-7 monolayer, 48 hrs post-treatment, mean±SEM), 70 ± 6 nM; in the test on MCF-7 cells (setting [4]), 50 ± 10 nM; in the test with MCF-7/dox cells (MCF-7/dox monolayer, 48 hrs post-treatment, mean±SEM) it was 37 ± 21 nM; in the test with MCF-7/dox cells (setting [5]), 50 ± 18 nM; in the test on MDA-MB-231 cells, 30 ± 10 nM. In addition, the IC50 stood at 240 ± 30 nM in the test on BT474 cells; 1040 ± 70 nM in the test on MCF-7 tumoroids (MCF-7 tumoroids on scaffold, hypoxic conditions (CoCl2)); 780 ± 250 nM in the test with MCF-7 tumoroids (MCF-7 tumoroids on scaffold, normoxia, 6 days culture, 48 hrs treatment); 2240 ± 460 nM with MCF-7/dox tumoroids (MCF-7/dox tumoroids on scaffold, hypoxic conditions (CoCl2)); 1660 ± 60 nM in the test with MCF-7/dox tumoroids (MCF-7/dox tumoroids on scaffold, normoxia, 6 days culture, 48 hrs treatment). In addition, in test [3], the CD44highCD24low population entry is reported as “decreased”. The “potency in high throughput screening” value in the test on MCF-7 cells (MCF-7 monolayer) and in the test with MCF-7/dox cells (MCF-7/dox monolayer) was “high potency” in each case.

For the compound `CO[C@@]12[C@H](COC(N)=O)C3=C(C(=O)C(C)=C(N)C3=O)N1C[C@@H]1N[C@@H]12` [Mitomycin C], the “potency in high throughput screening” value with MCF-7 cells (MCF-7 monolayer) and in the test on MCF-7/dox cells (MCF-7/dox monolayer) was “high potency” each time. Also, the half-maximal inhibitory concentration (IC50) came to 170 ± 60 nM with MCF-7 cells (setting [4]), 120 ± 10 nM with MCF-7/dox cells (setting [5]), 30 ± 10 nM in the test with MDA-MB-231 cells and 30 ± 4 nM in the test on BT474 cells.

Consider `COc1cccc2c1C(=O)c1c(O)c3c(c(O)c1C2=O)C[C@@](O)(C(=O)CO)C[C@@H]3O[C@H]1C[C@H](N)[C@@H](O)[C@H](C)O1` [epirubicin (hydrochloride)], for which the “rank as inhibitor of HT-29 cell viability” value (from here on “rank as inhibitor”) in the test with HT-29 cells and in the test on HT-29 tumoroids was “most potent inhibitors” each time.

On to `Nc1ccn([C@@H]2O[C@H](CO)[C@@H](O)[C@@H]2O)c(=O)n1` [cytarabine], for which the “rank as inhibitor” value in the test with HT-29 cells and with HT-29 tumoroids was “least potent inhibitors” in each case.

With `COc1cccc2c1C(=O)c1c(O)c3c(c(O)c1C2=O)C[C@@](O)(C(C)=O)C[C@@H]3O[C@H]1C[C@H](N)[C@H](O)[C@H](C)O1` [daunorubicin (hydrochloride)], the “rank as inhibitor” value in the test with HT-29 cells and in the test on HT-29 tumoroids was “most potent inhibitors” each time.

With `N.N.[Cl][Pt][Cl]` [cisplatin], the “rank as inhibitor” value with HT-29 cells and with HT-29 tumoroids was “least potent inhibitors” each time.

For `COc1cccc2c1C(=O)c1c(O)c3c(c(O)c1C2=O)C[C@@](O)(C(=O)CO)C[C@@H]3O[C@H]1C[C@H](N)[C@H](O)[C@H](C)O1` [doxorubicin], the IC50 with MCF-7 cells (Homo sapiens, MCF7, 48 h) is 180 ± 8 nM; in the test with MCF-7/dox cells (Homo sapiens, MCF7-DOX, 48 h), 4400 ± 280 nM; in the test with MCF-7 tumoroids (Homo sapiens, MCF7), 1310 ± 270 nM; in the test with MCF-7/dox tumoroids (Homo sapiens, MCF7-DOX), 23100 ± 5350 nM. In addition, the “fold more resistant than MCF-7” value with MCF-7/dox cells (MCF-7/dox vs MCF-7 in monolayer) turned out to be 24 fold.

For the compound `Nc1nc2nc[nH]c2c(=S)[nH]1` [6-thioguanine], the “rank as inhibitor” value with HT-29 cells and in the test with HT-29 tumoroids was “least potent inhibitors” each time.

These data come from US20190033294A1, “METHODS OF SCREENING DRUGS FOR CANCER TREATMENT USING CELLS GROWN ON A FIBER-INSPIRED SMART SCAFFOLD” (UNIVERSITY OF SOUTH FLORIDA, priority 2016, published 2019).
